SMILES strings stand for the structures. pIC50: −log10 of the molar value. A value given as a limit tells only on which side of the number the result lay.

As a reminder, the pIC50 is the negative decadic logarithm of the IC50, by convention in mol/L.

One assay addresses human autotaxin (Homo sapiens (Human), UniProt Q13822). Put plainly: Human Autotaxin Assay. The class given is biochemical.
Conditions: not given
As to the method: ATX activity is assayed in concentrated conditioned media from Hep3B human hepatocellular carcinoma cells by measuring the amount of choline released from the substrate, lysophosphatidylcholine (LPC) as it is cleaved to LPA. Conditioned media is collected from confluent Hep3B cells and concentrated 20-fold using Centriprep-30 filter devices (Millipore). […] 100 μl of a color mix containing 4.5 mM 4-aminoantipyrine, 2.7 mM N-ethyl-N-(2-hydroxy-3-sulfopropyl)-m-toluidine, 21 units/ml horseradish peroxidase and 3 units/ml choline oxidase in 50 mM Tris, pH 8, 4.5 mM MgCl2 is added and the incubation continued for 15 minutes at room temperature before reading the absorbance at 555 nm.
`N#C/C(=C\c1cn(Cc2ccc(F)cc2)c2nc(Cl)ccc12)c1ccc(C(=O)O)cc1` [Compound 3-3, (Z)-4-(2-(6-chloro-1-(4-fluorobenzyl)-1H-pyrrolo[2,3-b]pyridin-3-yl)-1-cyanovinyl)benzoic acid]: the pIC50 is 5.00 to 6.30.

Staying with this assay, now noted: ATX in concentrated conditioned media from Hep3B cells; choline released from LPC substrate; read-out: IC50.
Take `N#C/C(=C\c1nn(Cc2ccc(F)cc2)c2cc(Cl)ccc12)c1ccc(C(=O)O)cc1` [Compound 1-1, (Z)-4-(2-(6-chloro-1-(4-fluorobenzyl)-1H-indazol-3-yl)-1-cyanovinyl)benzoic acid]: the pIC50 is over 6.30.
Regarding `N#C/C(=C\c1nn(Cc2ccccc2)c2cc(Cl)ccc12)c1ccc(C(=O)O)cc1` [Compound 1-2, (Z)-4-(2-(1-benzyl-6-chloro-1H-indazol-3-yl)-1-cyanovinyl)benzoic acid], the pIC50 is over 6.30.
On the same count and under the same terms, next, `N#C/C(=C\c1nn(Cc2cc(Cl)cc(Cl)c2)c2cc(Cl)ccc12)c1ccc(C(=O)O)cc1` [Compound 1-3]: 5.00 to 6.30; `N#C/C(=C\c1nn(Cc2cc(C(F)(F)F)cc(C(F)(F)F)c2)c2cc(Cl)ccc12)c1ccc(C(=O)O)cc1` [Compound 1-4, (Z)-4-(2-(1-(3,5-bis(trifluoromethyl)benzyl)-6-chloro-1H-indazol-3-yl)-1-cyanovinyl)benzoic acid]: 5.00 to 6.30; `Cn1ccc(Cn2nc(/C=C(\C#N)c3ccc(C(=O)O)cc3)c3ccc(Cl)cc32)n1` [Compound 1-5, (Z)-4-(2-(6-chloro-1-((1-methyl-1H-pyrazol-3-yl)methyl)-1H-indazol-3-yl)-1-cyanovinyl)benzoic acid]: under 5.00.
On the same count and under the same terms, the result for `N#C/C(=C\c1nn(Cc2ccc(Cl)nc2)c2cc(Cl)ccc12)c1ccc(C(=O)O)cc1` [Compound 1-6, (Z)-4-(2-(6-chloro-1-((6-chloropyridin-3-yl)methyl)-1H-indazol-3-yl)-1-cyanovinyl)benzoic acid] reads over 6.30; that for `COc1ccc(Cn2nc(/C=C(\C#N)c3ccc(C(=O)O)cc3)c3ccc(Cl)cc32)cn1` [Compound 1-7, (Z)-4-(2-(6-chloro-1-((6-methoxypyridin-3-yl)methyl)-1H-indazol-3-yl)-1-cyanovinyl)benzoic acid], over 6.30.
On the same count and under the same terms, the result for `O=C(O)c1ccc(/C=C/c2nn(Cc3ccc(F)cc3)c3cc(Cl)ccc23)cc1` [Compound 1-8, (E)-4-(2-(6-chloro-1-(4-fluorobenzyl)-1H-indazol-3-yl)vinyl)benzoic acid] reads 5.00 to 6.30; that for `N#C/C(=C\c1cn(Cc2ccc(F)cc2)c2ncccc12)c1ccc(C(=O)O)cc1` [Compound 3-1, (Z)-4-(1-cyano-2-(1-(4-fluorobenzyl)-1H-pyrrolo[2,3-b]pyridin-3-yl)vinyl)benzoic acid], over 6.30.
Take `COc1ccc(Cn2cc(/C=C(\C#N)c3ccc(C(=O)O)cc3)c3cccnc32)cn1` [Compound 3-2, (Z)-4-(1-cyano-2-(1-((6-methoxypyridin-3-yl)methyl)-1H-pyrrolo[2,3-b]pyridin-3-yl)vinyl)benzoic acid]: the pIC50 is 5.00 to 6.30.
Same read-out and setting: the result for `COc1ccc(Cn2cc(/C=C(\C#N)c3ccc(C(=O)O)cc3)c3ccc(Cl)nc32)cn1` [Compound 3-4, (Z)-4-(2-(6-chloro-1-((6-methoxypyridin-3-yl)methyl)-1H-pyrrolo[2,3-b]pyridin-3-yl)-1-cyanovinyl)benzoic acid] reads over 6.30.
Same read-out and setting: next, `CCCn1cc(-n2c(C)c(/C=C(\C#N)c3ccc(C(=O)O)cc3)c3ccsc32)cn1` [Compound 5-1, (Z)-4-(1-cyano-2-(5-methyl-6-(1-propyl-1H-pyrazol-4-yl)-6H-thieno[2,3-b]pyrrol-4-yl)vinyl)benzoic acid]: under 5.00.

The values are drawn from patent US9951026B2, “Heterocyclic vinyl autotaxin inhibitor compounds” (PharmAkea, Inc., priority 2013, dated 2018).
